In patent US11903912B2, “Composition for preventing and treating breast cancer including selenopsammaplin A as active ingredients” (Seoul National University R & DB Foundation, priority 2019, dated 2024):

Key:
[1] = tested on: SNU638 human gastric cancer cells; assay: SRB cytotoxicity test, SNU638; assay type: cell-based; settings: SRB assay, cultured 3 days
Experimental: (§1) A cytotoxicity test was performed using synthesized selenopsammaplin A and derivatives thereof (Lee S K et al […] Chem Biol Interact 115:215-28).
(§2) The cytotoxicity test was performed on a total of five representative cancer cell lines. The cytotoxicity of each compound was measured using an SRB assay method (human lung cancer cells, A549; human colon cancer cells, HCT116; human breast cancer cells, MDA-MB231; human liver cancer cells, SK-HEP-1; human gastric cancer cells, SNU638).
(§3) Each cell line was sub-cultured once or twice using Roswell Park Memorial Institute (RPMI) medium 1640 (RPMI 1640) or Dulbecco's Modified Eagle's Medium (DMEM) containing 10% fetal bovine serum (FBS) inactivated by heat, 100 units/mL of penicillin, 100 μg/mL of streptomycin, and 250 ng/mL of amphotericin B at 37° C. for 1 week under a 5% CO2 condition. All cells were […] in liquid nitrogen, and then passaged three or more times to be used in the experiment. The effects of compounds on cell growth were measured using a sulforhodamine B (SRB) method (Lee et al (1998) Chemico-Biol Interact 115:215-228).
(§4) Specifically, each human cancer cell line used in the present invention was sub-cultured in an RPMI medium containing 10% FBS, 1% PSF, and the like, and 10 μl of a sample dissolved in 10% DMSO and 190 μl (4-5×10^4 cells/ml) of the cell suspension were added to each well of a 96-well plate and cultured for 3 days. 190 μl of the cell suspension was added to at least 16 wells and cultured for 30 minutes, and used as a zero-day control. The cultured cells were fixed with 10% trichloroacetic acid (TCA) and then stained with an SRB solution, and the staining solution was dissolved with 10 mM Tris-base, and then absorbance at 515 nm was measured. Using the case of culturing in 10% DMSO as a control, cell viability according to each test material treatment was measured using Equation 1 below. Etoposide was used as a positive control. % Viability=(OD(sample)−OD(0-day))/(OD(10% DMSO)−OD(0-day))×100 [Equation 1]
(§5) Assuming that a control not-treated with the sample was set at 100%, the values of sample-treated groups were expressed as percentage with respect to the control, and each test material treatment results were obtained as the mean±SEM of two or three tests. The IC50 value is the concentration of the test material for a 50% survival rate.

[2] = tested on: HCT116 human colon cancer cells; assay: SRB cytotoxicity test, HCT116; assay type: cell-based; settings: SRB assay, cultured 3 days
Experimental: as §1, §2, §3, §4, §5

[3] = tested on: breast tumors; assay: Breast tumor growth in xenograft mouse model; assay type: in vivo, nude BALB/c mice
Experimental: Breast cancer cells were injected into fat pads of nude BALB/c mice (8-week-old, female). When the tumor size reached about 200 mm^3, the compound was injected intraperitoneally three times a week. The tumor volume was calculated by the following equation: [volume […]=(L×W2)/2] and illustrated in FIG. 8A. 38 days after administration began, the mice were sacrificed and tumors were extracted, and the weights thereof were measured and illustrated in FIG. 8B. The body weights of the mice measured during the experiment are illustrated in FIG. 8C.

[4] = tested on: H3K79me2, E-cadherin, vimentin in breast tumors; assay: Cancer metastasis markers in tumor tissues, western blot; assay type: in vivo; settings: tumors extracted from treated mice
Experimental: To verify that compound 2 is involved in the regulation of key factors such as H3K79me2, E-cadherin, and vimentin in vivo, the effect of compound 2 on the key factors in tumor tissues was analyzed using the following method.
The triple-negative breast cancer cell line MDA-MB-231 was spread at a concentration of 2×10^6 cells/well on a DMEM medium containing 10% FBS in a 6-well plate, cultured at 37° C. for 24 hours under a 5% CO2 condition, and then washed twice with phosphate-buffered saline (PBS). Attached cells were recovered and washed twice with PBS, and then boiling 2× sample loading buffer (250 mM Tris-HCl (pH 6.8), 4% SDS, 10% glycerol, 0.006% bromophenol blue, 2% β-mercaptoethanol, 50 mM sodium fluoride, and 5 mM sodium orthovanadate) was added thereto to disrupt the cells and the cells were left at 100° C. for 10 minutes. After cooling, the cells were stored at […] and […] at 37° C. immediately before use in protein quantification and electrophoresis. 10 μg of proteins were electrophoresed at 100 V for 2 hours using a 12% SDS-polyacrylamide gel (#456-1036, Bio-Rad, Hercules, Calif.). The separated proteins were transferred to a PVDF membrane (ISEQ15150, Millipore, Bedford, Mass.) at 100 V for 1 hour, and a blocking buffer (5% non-fat dry milk in TBS containing 0.1% Tween-20 (TBST)) was injected thereinto to culture the proteins at room temperature for 1 hour. After washing three times with TBST for 5 minutes, the corresponding single antibody was diluted with 5% non-fat dry milk in TBST and allowed to react with the membrane at 4° C. for 18 hours. The membrane [ISEQ 1S150, Millipore, Bedford, Mass.] was washed three times with TBST for 10 minutes, and then horseradish peroxidase (HRP)-conjugated secondary antibodies were diluted with 2.5% non-fat dry milk in TBST at a ratio of 1:2,000 and allowed to react with the membrane at room temperature for 2 hours. […] These were quantified using ImageJ software and are illustrated in FIG. 10B.

## O=C(NCC[Se][Se]CCNC(=O)/C(Cc1ccccc1)=N/O)/C(Cc1ccccc1)=N/O [Compound 2, (2E,2′E)-N,N′-(diselenediylbis(ethane-2,1-diyl))bis(2-(hydroxyimino)-3-phenylpropanamide)]
[1]
  IC50: 50 nM
[2]
  IC50: 90 nM
[3]; 38 days after administration began, compared to control, psammaplin A and paclitaxel groups
  tumor weight: remarkably reduced
[3]; intraperitoneally three times a week, compared to the control
  tumor volume: remarkably reduced
[3]; measured during the xenograft experiment
  body weights of the mice: not affected
[4]
  E-cadherin in breast tumors: increased in a concentration-dependent manner
  histone methylation (H3K79me2) in breast tumors: reduced in a concentration-dependent manner
  vimentin in breast tumors: reduced in a concentration-dependent manner
